Source: ChEMBL document CHEMBL1143641, “Structure-based design of 7-carbamate analogs of geldanamycin” (Bioorg Med Chem Lett, 2005)

Key:
[1] = target: Heat shock protein HSP 90-alpha (Homo sapiens, UniProt P07900); assay: Binding affinity for human heat shock protein 90 in scintillation proximity assay
[2] = test system: SK-BR-3; assay: Cytotoxicity against SKBr3 cells; format: functional, cell-based; settings: Homo sapiens

Compound	Kd [1] [nM]	IC50 [2] [nM]
CO[C@H]1C[C@H](C)CC2=C(NCCN(C)C)C(=O)C=C(NC(=O)/C(C)=C/C=C3/NC(=O)O[C@@H](/C(C)=C/[C@H](C)[C@H]1O)[C@H]3OC)C2=O	> 100000	4500
CO[C@H]1/C=C\C=C(/C)C(=O)NC2=CC(=O)C(NCCN(C)C)=C(C[C@@H](C)C[C@H](OC)[C@H](O)[C@@H](C)/C=C(\C)[C@@H]1OC(=O)NCC(N)=O)C2=O	> 100000	1400
CO[C@H]1/C=C\C=C(/C)C(=O)NC2=CC(=O)C(N3CCC3)=C(C[C@@H](C)C[C@H](OC)[C@H](O)[C@@H](C)/C=C(\C)[C@@H]1OC(=O)NN)C2=O	> 100000	530
CNC(=O)O[C@H]1/C(C)=C/[C@H](C)[C@@H](O)[C@@H](OC)C[C@H](C)CC2=C(NCCN(C)C)C(=O)C=C(NC(=O)/C(C)=C/C=C\[C@@H]1OC)C2=O	> 100000	420
CONC(=O)O[C@H]1/C(C)=C/[C@H](C)[C@@H](O)[C@@H](OC)C[C@H](C)CC2=C(NCCN(C)C)C(=O)C=C(NC(=O)/C(C)=C/C=C\[C@@H]1OC)C2=O	> 100000	490
CO[C@H]1/C=C\C=C(/C)C(=O)NC2=CC(=O)C(NCCN(C)C)=C(C[C@@H](C)C[C@H](OC)[C@H](O)[C@@H](C)/C=C(\C)[C@@H]1OC(=O)NCCN(C)C)C2=O	> 100000	460
CO[C@H]1/C=C\C=C(/C)C(=O)NC2=CC(=O)C(N)=C(C[C@@H](C)C[C@H](OC)[C@H](O)[C@@H](C)/C=C(\C)[C@@H]1OC(N)=O)C2=O	100	
CO[C@H]1/C=C\C=C(/C)C(=O)NC2=CC(=O)C(NCCN(C)C)=C(C[C@@H](C)C[C@H](OC)[C@H](O)[C@@H](C)/C=C(\C)[C@@H]1OC(=O)N(C)N)C2=O	> 100000	2500
CO[C@H]1/C=C\C=C(/C)C(=O)NC2=CC(=O)C(NCCN(C)C)=C(C[C@@H](C)C[C@H](OC)[C@H](O)[C@@H](C)/C=C(\C)[C@@H]1OC(=O)NO)C2=O	18000	220
CO[C@H]1/C=C\C=C(/C)C(=O)NC2=CC(=O)C(N3CCC3)=C(C[C@@H](C)C[C@H](OC)[C@H](O)[C@@H](C)/C=C(\C)[C@@H]1OC(=O)NO)C2=O	> 100000	640
CO[C@H]1/C=C\C=C(/C)C(=O)NC2=CC(=O)C(NCCF)=C(C[C@@H](C)C[C@H](OC)[C@H](O)[C@@H](C)/C=C(\C)[C@@H]1OC(=O)NN)C2=O	> 100000	2100
CO[C@H]1/C=C\C=C(/C)C(=O)NC2=CC(=O)C(NCCF)=C(C[C@@H](C)C[C@H](OC)[C@H](O)[C@@H](C)/C=C(\C)[C@@H]1OC(=O)NO)C2=O	> 100000	1500
CO[C@H]1/C=C\C=C(/C)C(=O)NC2=CC(=O)C(N)=C(C[C@@H](C)C[C@H](OC)[C@H](O)[C@@H](C)/C=C(\C)[C@@H]1OC(=O)c1ccc[nH]1)C2=O	> 100000	1900
CO[C@H]1/C=C\C=C(/C)C(=O)NC2=CC(=O)C(NCCN(C)C)=C(C[C@@H](C)C[C@H](OC)[C@H](O)[C@@H](C)/C=C(\C)[C@@H]1OC(=O)c1c[nH]cn1)C2=O	> 100000	1200
CO[C@H]1/C=C\C=C(/C)C(=O)NC2=CC(=O)C(NCCN(C)C)=C(C[C@@H](C)C[C@H](OC)[C@H](O)[C@@H](C)/C=C(\C)[C@@H]1OC(=O)NN)C2=O	> 100000	140
CO[C@H]1/C=C\C=C(/C)C(=O)NC2=CC(=O)C(NCCN(C)C)=C(C[C@@H](C)C[C@H](OC)[C@H](O)[C@@H](C)/C=C(\C)[C@@H]1OC(=O)NCCO)C2=O	> 100000	390
CO[C@H]1/C=C\C=C(/C)C(=O)NC2=CC(=O)C(NCCN(C)C)=C(C[C@@H](C)C[C@H](OC)[C@H](O)[C@@H](C)/C=C(\C)[C@@H]1OC(=O)c1ccc[nH]1)C2=O	> 100000	410
CO[C@H]1/C=C\C=C(/C)C(=O)NC2=CC(=O)C(NCCF)=C(C[C@@H](C)C[C@H](OC)[C@H](O)[C@@H](C)/C=C(\C)[C@@H]1OC(N)=O)C2=O	800	
CO[C@H]1/C=C\C=C(/C)C(=O)NC2=CC(=O)C(N3CCC3)=C(C[C@@H](C)C[C@H](OC)[C@H](O)[C@@H](C)/C=C(\C)[C@@H]1OC(N)=O)C2=O	1400	
